The record followed here is ChEMBL document CHEMBL5715954, “Silencing c-Myc translation as a therapeutic strategy through targeting PI3Kδ and CK1ε in hematological malignancies” (Blood, 2017).

Molecules are shown by their SMILES.

Common to all, as to set-up: scale not given: the % may be the effect or the level left
Assay [1] deals with T1, Serine/threonine-protein kinase DCLK2 (Homo sapiens) (UniProt Q8N568).
T1 sequence (whole entry): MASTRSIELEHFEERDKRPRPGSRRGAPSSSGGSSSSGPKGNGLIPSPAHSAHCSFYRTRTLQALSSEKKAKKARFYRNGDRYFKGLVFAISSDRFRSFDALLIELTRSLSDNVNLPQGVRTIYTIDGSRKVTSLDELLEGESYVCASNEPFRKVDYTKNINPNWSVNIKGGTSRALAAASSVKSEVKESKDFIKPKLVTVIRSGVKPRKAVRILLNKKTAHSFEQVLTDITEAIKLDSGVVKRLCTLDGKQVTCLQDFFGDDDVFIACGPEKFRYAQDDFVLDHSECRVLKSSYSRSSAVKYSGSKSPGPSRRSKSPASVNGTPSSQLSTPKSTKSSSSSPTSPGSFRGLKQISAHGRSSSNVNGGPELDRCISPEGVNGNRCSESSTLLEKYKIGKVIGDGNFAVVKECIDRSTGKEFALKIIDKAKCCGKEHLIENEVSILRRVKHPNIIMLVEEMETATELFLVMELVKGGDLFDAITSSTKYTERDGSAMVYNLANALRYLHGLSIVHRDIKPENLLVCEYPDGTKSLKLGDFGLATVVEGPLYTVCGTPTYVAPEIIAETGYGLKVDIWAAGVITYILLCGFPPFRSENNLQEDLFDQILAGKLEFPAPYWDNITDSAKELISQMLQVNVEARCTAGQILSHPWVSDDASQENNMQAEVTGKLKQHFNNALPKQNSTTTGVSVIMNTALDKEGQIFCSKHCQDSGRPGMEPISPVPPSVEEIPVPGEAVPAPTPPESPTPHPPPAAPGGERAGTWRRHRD
Briefly: Inhibition of human DCAMKL2 assessed as enzyme activity at 1 uM using KKLNRTLSFAEPG as substrate preincubated for 20 mins followed by [gamma-33P]-ATP addition and measured after 120 mins by radiometric Hot-SpotSM Kinase assay relative to control.

Assay [2] deals with Serine/threonine-protein kinase 38-like (Homo sapiens) (UniProt Q9Y2H1). Put plainly: Inhibition of human STK38L assessed as enzyme activity at 1 uM using KKRNRRLSVA as substrate preincubated for 20 mins followed by [gamma-33P]-ATP addition and measured after 120 mins by radiometric Hot-SpotSM Kinase assay relative to control.
In assay [3] the target is T2, Serine/threonine-protein kinase TAO2 (Homo sapiens) (UniProt Q9UL54).
T2 sequence (whole entry): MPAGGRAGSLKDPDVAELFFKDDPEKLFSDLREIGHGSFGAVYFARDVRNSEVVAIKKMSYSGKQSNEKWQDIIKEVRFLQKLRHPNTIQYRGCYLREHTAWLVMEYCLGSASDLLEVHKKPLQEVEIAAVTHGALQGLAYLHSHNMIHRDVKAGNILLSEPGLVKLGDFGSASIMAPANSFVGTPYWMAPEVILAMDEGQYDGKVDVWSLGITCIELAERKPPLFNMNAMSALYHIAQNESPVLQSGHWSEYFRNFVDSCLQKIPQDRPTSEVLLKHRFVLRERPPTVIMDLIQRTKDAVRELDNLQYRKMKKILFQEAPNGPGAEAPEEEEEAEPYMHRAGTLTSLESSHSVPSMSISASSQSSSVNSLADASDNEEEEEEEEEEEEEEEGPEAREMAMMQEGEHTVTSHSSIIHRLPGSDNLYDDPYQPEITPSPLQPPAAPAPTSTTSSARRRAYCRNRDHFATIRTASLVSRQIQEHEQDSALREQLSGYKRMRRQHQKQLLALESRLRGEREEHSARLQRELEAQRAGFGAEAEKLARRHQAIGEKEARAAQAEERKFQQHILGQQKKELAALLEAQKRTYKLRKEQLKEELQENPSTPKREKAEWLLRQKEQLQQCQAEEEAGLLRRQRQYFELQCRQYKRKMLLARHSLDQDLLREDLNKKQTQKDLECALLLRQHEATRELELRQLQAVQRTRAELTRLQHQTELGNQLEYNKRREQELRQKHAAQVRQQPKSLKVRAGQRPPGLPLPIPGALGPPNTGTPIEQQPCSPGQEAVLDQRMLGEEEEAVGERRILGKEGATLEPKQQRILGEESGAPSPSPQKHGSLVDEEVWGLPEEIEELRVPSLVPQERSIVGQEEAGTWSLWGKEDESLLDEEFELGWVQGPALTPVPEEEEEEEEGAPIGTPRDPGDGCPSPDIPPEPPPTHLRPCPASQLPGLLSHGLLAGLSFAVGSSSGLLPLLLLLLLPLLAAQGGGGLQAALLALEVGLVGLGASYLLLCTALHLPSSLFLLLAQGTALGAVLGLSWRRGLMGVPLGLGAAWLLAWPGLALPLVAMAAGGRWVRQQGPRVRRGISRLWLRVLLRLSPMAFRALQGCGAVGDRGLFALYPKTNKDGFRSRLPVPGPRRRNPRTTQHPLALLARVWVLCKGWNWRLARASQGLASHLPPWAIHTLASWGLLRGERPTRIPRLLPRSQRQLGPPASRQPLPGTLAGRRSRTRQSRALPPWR
Briefly: Inhibition of human TAOK2 assessed as enzyme activity at 1 uM using myelin basic protein as substrate preincubated for 20 mins followed by [gamma-33P]-ATP addition and measured after 120 mins by radiometric Hot-SpotSM Kinase assay relative to control.

For assay [4], the target named is CDC7/DBF4 (Cell division cycle 7-related protein kinase/Activator of S phase kinase) (Homo sapiens) (UniProt Q9UBU7+O00311). Briefly: Inhibition of human CDC7/DBF4 assessed as enzyme activity at 1 uM using KTFCGTPEYLAPEVRREPRILSEEEQEMFRDFDYIADWC as substrate preincubated for 20 mins followed by [gamma-33P]-ATP addition and measured after 120 mins by radiometric Hot-SpotSM Kinase assay relative to control. Format: protein-complex assay.

Assay [5] concerns the target Ribosomal protein S6 kinase alpha-3 (Homo sapiens) (UniProt P51812). Briefly: Inhibition of human RSK2 assessed as enzyme activity at 1 uM using KKLNRTLSVA as substrate preincubated for 20 mins followed by [gamma-33P]-ATP addition and measured after 120 mins by radiometric Hot-SpotSM Kinase assay relative to control.
In assay [6] the target is MAP kinase-activated protein kinase 3 (Homo sapiens) (UniProt Q16644). Put plainly: Inhibition of human MAPKAPK3 assessed as enzyme activity at 1 uM using KKLNRTLSVA as substrate preincubated for 20 mins followed by [gamma-33P]-ATP addition and measured after 120 mins by radiometric Hot-SpotSM Kinase assay relative to control.
MAP kinase-activated protein kinase 3 (Homo sapiens), sequence (Q16644 whole entry, looked up): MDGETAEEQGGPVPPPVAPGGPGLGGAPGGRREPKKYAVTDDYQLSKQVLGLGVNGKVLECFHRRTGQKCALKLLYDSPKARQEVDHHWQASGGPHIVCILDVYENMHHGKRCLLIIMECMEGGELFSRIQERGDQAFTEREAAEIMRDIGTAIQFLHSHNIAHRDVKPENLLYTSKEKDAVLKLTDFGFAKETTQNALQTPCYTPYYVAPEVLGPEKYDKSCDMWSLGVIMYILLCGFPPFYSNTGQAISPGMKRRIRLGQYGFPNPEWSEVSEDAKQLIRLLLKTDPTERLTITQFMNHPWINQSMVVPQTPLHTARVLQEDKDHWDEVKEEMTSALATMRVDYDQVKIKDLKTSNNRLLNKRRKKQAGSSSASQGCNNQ

Serine/threonine-protein kinase 38-like (Homo sapiens), sequence (Q9Y2H1 2-464 limits assumed): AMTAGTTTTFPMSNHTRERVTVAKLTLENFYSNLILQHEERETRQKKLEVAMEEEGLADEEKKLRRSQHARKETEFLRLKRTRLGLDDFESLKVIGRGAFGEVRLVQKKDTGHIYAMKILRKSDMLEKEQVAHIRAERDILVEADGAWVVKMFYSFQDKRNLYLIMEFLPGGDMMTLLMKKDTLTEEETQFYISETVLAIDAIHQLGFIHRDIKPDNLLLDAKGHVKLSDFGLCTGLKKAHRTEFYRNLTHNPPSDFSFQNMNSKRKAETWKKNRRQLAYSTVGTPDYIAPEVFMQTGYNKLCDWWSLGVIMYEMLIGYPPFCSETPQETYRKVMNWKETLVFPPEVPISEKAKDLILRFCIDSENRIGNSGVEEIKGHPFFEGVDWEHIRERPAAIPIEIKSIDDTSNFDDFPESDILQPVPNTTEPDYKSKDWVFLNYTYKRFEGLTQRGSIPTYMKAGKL
CDC7/DBF4 (Cell division cycle 7-related protein kinase/Activator of S phase kinase) (Homo sapiens), sequence (O00311 whole entry, looked up): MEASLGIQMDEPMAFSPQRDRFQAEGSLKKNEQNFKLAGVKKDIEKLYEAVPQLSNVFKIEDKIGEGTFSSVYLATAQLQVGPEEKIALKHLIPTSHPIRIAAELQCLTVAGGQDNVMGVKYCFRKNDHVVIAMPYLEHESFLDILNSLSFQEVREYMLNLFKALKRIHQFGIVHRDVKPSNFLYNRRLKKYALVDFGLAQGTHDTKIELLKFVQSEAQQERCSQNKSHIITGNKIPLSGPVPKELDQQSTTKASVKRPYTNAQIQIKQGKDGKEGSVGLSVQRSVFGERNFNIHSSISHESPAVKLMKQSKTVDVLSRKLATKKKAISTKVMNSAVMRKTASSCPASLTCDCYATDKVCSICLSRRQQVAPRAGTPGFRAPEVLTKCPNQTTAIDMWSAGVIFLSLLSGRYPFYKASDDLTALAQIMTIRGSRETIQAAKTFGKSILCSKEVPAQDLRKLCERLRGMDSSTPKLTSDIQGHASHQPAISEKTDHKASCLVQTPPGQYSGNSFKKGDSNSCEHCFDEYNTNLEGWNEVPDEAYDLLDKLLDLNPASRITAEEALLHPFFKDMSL
CDC7/DBF4 (Cell division cycle 7-related protein kinase/Activator of S phase kinase) (Homo sapiens), sequence (Q9UBU7 whole entry, looked up): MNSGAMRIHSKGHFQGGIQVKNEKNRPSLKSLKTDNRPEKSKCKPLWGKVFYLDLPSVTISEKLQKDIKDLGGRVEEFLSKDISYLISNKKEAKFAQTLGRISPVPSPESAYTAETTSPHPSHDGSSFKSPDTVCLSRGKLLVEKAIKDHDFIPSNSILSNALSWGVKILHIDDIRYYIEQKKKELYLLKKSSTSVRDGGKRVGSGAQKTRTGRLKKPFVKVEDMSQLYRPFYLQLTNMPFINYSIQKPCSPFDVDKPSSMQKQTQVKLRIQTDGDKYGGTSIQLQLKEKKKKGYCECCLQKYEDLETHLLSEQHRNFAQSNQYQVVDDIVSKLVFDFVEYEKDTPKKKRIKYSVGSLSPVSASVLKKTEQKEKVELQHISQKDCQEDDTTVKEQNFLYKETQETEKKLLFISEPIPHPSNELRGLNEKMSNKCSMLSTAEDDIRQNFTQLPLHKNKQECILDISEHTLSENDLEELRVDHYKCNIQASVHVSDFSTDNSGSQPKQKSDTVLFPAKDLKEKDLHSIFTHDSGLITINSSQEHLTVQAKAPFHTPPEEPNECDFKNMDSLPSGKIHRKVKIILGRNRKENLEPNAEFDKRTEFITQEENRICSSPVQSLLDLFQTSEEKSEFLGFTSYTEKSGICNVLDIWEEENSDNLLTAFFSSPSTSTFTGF
Ribosomal protein S6 kinase alpha-3 (Homo sapiens), sequence (P51812 whole entry): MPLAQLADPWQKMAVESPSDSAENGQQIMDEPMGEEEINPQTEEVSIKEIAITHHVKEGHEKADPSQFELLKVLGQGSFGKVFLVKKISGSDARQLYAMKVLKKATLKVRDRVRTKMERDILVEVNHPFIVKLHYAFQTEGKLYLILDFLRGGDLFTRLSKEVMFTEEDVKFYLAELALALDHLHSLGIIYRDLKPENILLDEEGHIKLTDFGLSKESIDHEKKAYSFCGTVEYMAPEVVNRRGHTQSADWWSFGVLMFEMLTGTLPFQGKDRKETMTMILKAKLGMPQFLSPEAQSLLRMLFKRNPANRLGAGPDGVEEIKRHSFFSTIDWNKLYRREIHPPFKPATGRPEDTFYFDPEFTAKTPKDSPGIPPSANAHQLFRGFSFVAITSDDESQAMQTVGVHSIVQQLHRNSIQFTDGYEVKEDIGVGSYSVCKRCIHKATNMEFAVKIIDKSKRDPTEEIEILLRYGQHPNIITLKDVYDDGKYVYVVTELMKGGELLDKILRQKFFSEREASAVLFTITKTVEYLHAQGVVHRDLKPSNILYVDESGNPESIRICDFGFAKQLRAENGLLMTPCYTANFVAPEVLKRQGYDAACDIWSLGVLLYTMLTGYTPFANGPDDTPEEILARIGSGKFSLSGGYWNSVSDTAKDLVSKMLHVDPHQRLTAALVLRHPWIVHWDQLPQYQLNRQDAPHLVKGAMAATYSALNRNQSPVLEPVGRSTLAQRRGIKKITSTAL

In the case of `C[C@H](Nc1ncnc2nc[nH]c12)c1cc2cccc(Cl)c2c(=O)n1-c1ccccc1`, the Activity in assay [1] is 94.1%; in assay [2] it was 92.7%; in assay [3], 93.3%; in assay [4], 93.8%; in assay [5] it was 97.7%; in assay [6] it was 95.8%.

On to `CC[C@H](Nc1ncnc2[nH]cnc12)c1nc2cccc(F)c2c(=O)n1-c1ccccc1`, for which the Activity stood at 94.7% in assay [1]; 95.1% in assay [2]; 96.7% in assay [3]; 91.6% in assay [4]; 101% in assay [5]; 97.3% in assay [6].

As for `CC(C)Oc1ccc(-c2nn([C@@H](C)c3oc4ccc(F)cc4c(=O)c3-c3cccc(F)c3)c3ncnc(N)c23)cc1F` [UMBRALISIB], the Activity in assay [1] was determined as 94.7%; in assay [2] it was 100%; in assay [3], 97.3%; in assay [4], 92%; in assay [5], 106%; in assay [6] it was 90.6%.
